Here are results for 2 molecules from US5661136A, “2-halo-2'-fluoro ARA adenosines as antinoplastic agents” (priority 1994, dated 1997).

One assay concerns the target T1, DNA polymerase α (Homo sapiens, UniProt P09884).
T1 sequence (P09884 1-1462): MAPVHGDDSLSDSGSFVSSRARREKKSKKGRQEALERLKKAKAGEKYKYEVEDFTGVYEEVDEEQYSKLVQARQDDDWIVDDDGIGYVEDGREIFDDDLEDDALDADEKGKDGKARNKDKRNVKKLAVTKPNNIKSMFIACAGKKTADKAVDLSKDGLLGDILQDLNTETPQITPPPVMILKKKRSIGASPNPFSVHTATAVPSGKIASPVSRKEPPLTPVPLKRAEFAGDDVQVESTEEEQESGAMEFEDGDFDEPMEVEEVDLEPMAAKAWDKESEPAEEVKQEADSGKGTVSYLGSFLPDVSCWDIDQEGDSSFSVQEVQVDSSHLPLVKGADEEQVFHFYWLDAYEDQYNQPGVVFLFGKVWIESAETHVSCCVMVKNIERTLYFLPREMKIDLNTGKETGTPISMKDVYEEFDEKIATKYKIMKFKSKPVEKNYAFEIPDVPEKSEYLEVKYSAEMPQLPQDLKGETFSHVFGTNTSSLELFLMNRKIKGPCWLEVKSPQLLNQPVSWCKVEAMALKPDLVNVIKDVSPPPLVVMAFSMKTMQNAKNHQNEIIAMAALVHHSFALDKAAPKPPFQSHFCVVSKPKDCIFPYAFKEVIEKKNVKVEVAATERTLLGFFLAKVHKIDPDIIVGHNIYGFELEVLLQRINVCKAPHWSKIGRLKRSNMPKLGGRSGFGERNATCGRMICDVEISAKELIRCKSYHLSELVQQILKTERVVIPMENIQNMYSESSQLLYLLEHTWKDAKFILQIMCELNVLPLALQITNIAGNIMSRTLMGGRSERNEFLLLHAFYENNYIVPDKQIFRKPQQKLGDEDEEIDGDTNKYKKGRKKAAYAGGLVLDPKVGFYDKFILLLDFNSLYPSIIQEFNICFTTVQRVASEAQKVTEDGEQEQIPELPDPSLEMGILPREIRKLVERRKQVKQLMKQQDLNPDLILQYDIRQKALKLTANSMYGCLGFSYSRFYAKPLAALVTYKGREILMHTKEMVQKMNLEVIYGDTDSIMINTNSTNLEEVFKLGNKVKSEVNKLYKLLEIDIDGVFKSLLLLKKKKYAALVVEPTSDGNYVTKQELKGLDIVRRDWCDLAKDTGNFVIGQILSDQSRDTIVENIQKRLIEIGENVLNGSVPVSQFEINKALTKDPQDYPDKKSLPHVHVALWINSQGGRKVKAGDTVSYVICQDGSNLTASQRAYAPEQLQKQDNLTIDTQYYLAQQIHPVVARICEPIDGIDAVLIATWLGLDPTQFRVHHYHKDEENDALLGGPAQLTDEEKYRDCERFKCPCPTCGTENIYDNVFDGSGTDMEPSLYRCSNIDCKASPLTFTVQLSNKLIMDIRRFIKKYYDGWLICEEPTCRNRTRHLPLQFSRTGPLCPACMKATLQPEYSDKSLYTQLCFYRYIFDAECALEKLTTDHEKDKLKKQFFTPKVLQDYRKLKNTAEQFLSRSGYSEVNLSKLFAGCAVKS
The note with it: incorporated 5'-monophosphate; cited from earlier work.

A further assay deals with HIV (strain IIIB). The experiment in a line: Activity against HIV in cell culture. Format: cell-based. The note with it: CEM or MT cell lines in culture.

Regarding `Nc1nc(Cl)nc2c1ncn2[C@H]1C[C@H](O)[C@@H](COP(=O)(O)O)O1` [2-chloro-2'-deoxyadenosine 5'monophosphate], the “inhibition of further elongation of the DNA chain after incorporation by DNA polymerase α” value on DNA polymerase α was “did not inhibit the further elongation of the DNA chain to the degree that was seen with the incorporation of either”.

Turning to `Nc1nc(F)nc2c1ncn2[C@@H]1O[C@H](CO)C[C@@H]1F` [compound 4b, 2-Fluoro-9-(2-3-dideoxy-2-fluoro-β-D-arabinofuranosyl)-9H-purin-6-amine], the “activity against HIV (strain IIIB)” value in the assay with HIV (strain IIIB) is recorded as “slight activity”.
